The record followed here is patent US9133187B2, “Serine/threonine kinase inhibitors” (ARRAY BIOPHARMA INC., priority 2011, dated 2015).

For orientation: IC50 means the midpoint of a concentration-inhibition curve.

Assay [1] deals with human ERK-2 (Mitogen Activated Kinase 1) (Homo sapiens (Human), UniProt P28482). Kind of assay: ERK-2 Enzymatic Assay. Format: biochemical. The following applies: 5 nM ERK-2, 25 μM ATP, Omnia peptide S/T17; read-out: ERK Inhibition IC50. How it is done: Compounds were tested in an enzymatic assay using human ERK-2 (Mitogen Activated Kinase 1), recombinantly expressed as an n-terminal 6-His fusion protein in E. coli and corresponding to aa 8-360. The substrate used was the fluorescent Omnia peptide S/T17 (Invitrogen of Carlsbad, Calif.; Cat. KNZ1171C). Test compounds were diluted in DMSO in 3-fold serial dilutions at 100× final concentrations. […] The assay was run at ambient temperature in a white 384-well polypropylene plate (Nunc, Inc of Naperville, Ill.; Cat. 267462) collecting data every 50 seconds for approximately 30 minutes on an Envision plate reader (PerkinElmer, Inc. of Waltham, Mass.); Excitation 340 nm/Emission 495 nm. The data collected from each well was fit to a straight line and the resulting rates were used to calculate percent of control. Percent of control was plotted against compound concentration and IC50 values were determined using a four-parameter fit.
Chain of human ERK-2 (Mitogen Activated Kinase 1) (P28482 8-360): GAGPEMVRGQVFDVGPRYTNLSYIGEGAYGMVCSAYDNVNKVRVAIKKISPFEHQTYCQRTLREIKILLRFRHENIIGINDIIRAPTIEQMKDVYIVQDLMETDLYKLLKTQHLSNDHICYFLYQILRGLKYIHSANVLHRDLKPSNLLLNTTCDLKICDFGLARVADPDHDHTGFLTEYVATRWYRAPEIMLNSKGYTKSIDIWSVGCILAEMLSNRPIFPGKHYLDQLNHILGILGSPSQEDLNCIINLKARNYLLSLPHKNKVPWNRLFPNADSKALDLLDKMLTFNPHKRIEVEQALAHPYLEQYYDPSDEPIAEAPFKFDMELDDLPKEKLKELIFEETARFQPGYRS

The test system of assay [2] is PMA-stimulated P90RSK(Ser380) phosphorylation in HepG2 cells. Kind of assay: Cellular P90RSK(Ser380) Phosphorylation Assay. It is filed as cell-based. The note with it: Homo sapiens, 1.5 h compound incubation, PMA stimulation, pP90RSK(Ser380) normalized to GAPDH, read-out: Cell Assay IC50. How it is done: Inhibition of PMA-stimulated P90RSK(Ser380) phosphorylation was determined by the following in vitro cellular mechanistic assay, which comprises incubating cells with a compound for 1.5 hours and quantifying fluorescent pP90RSK(Ser380) signal on fixed cells and normalizing to GAPDH signal.
Materials and Methods: HepG2 cells were obtained from ATCC and grown in DMEM supplemented with 10% fetal bovine serum. Cells were plated in 96-well plates at 35,000 cells/well and allowed to attach overnight at 37° C./5% CO2. Diluted compounds were then added at a final concentration of 0.5% DMSO. After 1.5 hour compound incubation, cells were stimulated with the addition of PMA (phorbol 12-myristate 13-acetate) at a final concentration of 100 ng/mL; the PMA stimulation was a 30-minute incubation at 37° C./5% CO2. After the 30-minute PMA stimulation, cells were washed with PBS and fixed in 3.7% formaldehyde in PBS at room temperature for 15-20 minutes. This was followed by another wash in PBS and then permeabilization in 100% MeOH at room temperature for 10-15 minutes. Following the permeabilization incubation, cells were washed in PBS/0.05% Tween-20, followed by a block in Odyssey blocking buffer (LI-COR Biosciences) for at least 1 hour. Antibodies to phosphorylated P90RSK(Ser380) (Cell Signaling #9335, rabbit monoclonal) and GAPDH (Fitzgerald 10R-G109a, mouse monoclonal) were added to the cells and incubated overnight at 4° C. pP90RSK(Ser380) antibody was used at a 1:250 dilution; GAPDH was used at a 1:10,000 dilution. After washing with PBS/0.05% Tween-20, the cells were incubated with fluorescently-labeled secondary antibodies (Anti-rabbit-Alexa Flour680, Invitrogen Cat#A21109; Anti-mouse-IRDye800CW, Rockland Inc. Cat#610-131-121) for 1 hour. Both secondary antibodies were used at a 1:1000 dilution. Cells were then washed and analyzed for fluorescence at both wavelengths using the Odyssey Infrared Imaging System (LI-COR Biosciences). Phosphorylated P90RSK(Ser380) signal was normalized to GAPDH signal. Representative date is in TABLE III (infra).

In the case of `C[C@@H](NC(=O)N1CCc2cnc(NC(CO)CO)nc2C1)c1ccc(Cl)c(Cl)c1` [Compound I-75, (R)—N-(1-(3,4-dichlorophenyl)ethyl)-2-(1,3-dihydroxypropan-2-ylamino)-5,6-dihydropyrido[3,4-d]pyrimidine-7(8H)-carboxamide], the IC50 in assay [1] amounted to 5.6 nM; in assay [2] it was 314 nM.

For the compound `C[C@@H](CO)Nc1ncc2c(n1)CN(C(=O)NC1CNCC1c1ccc(C(F)(F)F)cc1)CC2` (mixture of isomers) [II-171, 2-(2-Hydroxy-1-methyl-ethylamino)-5,8-dihydro-6H-pyrido[3,4-d]pyrimidine-7-carboxylic acid [4-(4-trifluoromethyl-phenyl)-pyrrolidin-3-yl]-amide], the half-inhibitory concentration (IC50) in assay [1] was 0.7 nM; in assay [2] it was 10000 nM.

On to `C[C@@H](CO)Nc1ncc2c(n1)CN(C(=O)NCc1nc3ccccc3o1)CC2` [II-151, 2-((S)-2-Hydroxy-1-methyl-ethylamino)-5,8-dihydro-6H-pyrido[3,4-d]pyrimidine-7-carboxylic acid (benzooxazol-2-ylmethyl)-amide], for which the IC50 in assay [1] came to 52.8 nM; in assay [2], 10000 nM.

For `COC[C@@H](NC(=O)N1CCc2cnc(NCCO)nc2C1)c1ccc(Cl)c(Cl)c1` [Compound I-73], the figures for the half-inhibitory concentration (IC50) in assay [1] and in assay [2] were 9.8 nM and 241 nM, respectively.

With `CCCC(NC(=O)N1CCc2cnc(N[C@@H](C)CO)nc2C1)c1ccc(OC)c(F)c1` (stereo partly shown) [II-415, 2-(2-Hydroxy-1-methyl-ethylamino)-5,8-dihydro-6H-pyrido[3,4-d]pyrimidine-7-carboxylic acid [1-(3-fluoro-4-methoxy-phenyl)-butyl]-amide], the IC50 was found to be 2.3 nM in assay [1] and 39.5 nM in assay [2].

`CNC(=O)C(NC(=O)N1CCc2cnc(NC(C)C)nc2C1)c1ccc(F)c(Cl)c1` (stereo not shown) [II-26, 2-Isopropylamino-5,8-dihydro-6H-pyrido[3,4-d]pyrimidine-7-carboxylic acid [(3-chloro-4-fluoro-phenyl)-methylcarbamoyl-methyl]-amide]: the IC50 in assay [1] turned out to be 86.6 nM; in assay [2], 12200 nM.

Consider `CC(C)Nc1ncc2c(n1)CN(C(=O)N[C@@H](c1ccc(Cl)c(Cl)c1)[C@H]1CCCN1C)CC2` [Compound I-61, N—((S)-(3,4-dichlorophenyl)((R)-1-methylpyrrolidin-2-yl)methyl)-2-(isopropylamino)-5,6-dihydropyrido[3,4-d]pyrimidine-7(8H)-carboxamide], for which the half-inhibitory concentration (IC50) in assay [1] came to 2.9 nM; in assay [2] it was 93 nM.

`C[C@@H](CO)Nc1ncc2c(n1)CN(C(=O)NCc1cccc3cc[nH]c13)CC2` [II-200, 2-((S)-2-Hydroxy-1-methyl-ethylamino)-5,8-dihydro-6H-pyrido[3,4-d]pyrimidine-7-carboxylic acid (1H-indol-7-ylmethyl)-amide]: the IC50 in assay [1] stood at 411 nM; in assay [2], 1000 nM.

With `O=C(NC1(c2ccc(Cl)cc2)CCNC1)N1CCc2cnc(Nc3ccc(F)cc3)nc2C1` (stereo not shown) [II-64, 2-(4-Fluoro-phenylamino)-5,8-dihydro-6H-pyrido[3,4-d]pyrimidine-7-carboxylic acid [3-(4-chloro-phenyl)-pyrrolidin-3-yl]-amide], the IC50 is 38.3 nM in assay [1] and 3100 nM in assay [2].

On to `C[C@@H](NC(=O)N1CCc2cnc(N[C@H]3CCC(F)(F)C3)nc2C1)c1ccc(Cl)c(Cl)c1` [II-116, 2-((S)-3,3-Difluoro-cyclopentylamino)-5,8-dihydro-6H-pyrido[3,4-d]pyrimidine-7-carboxylic acid [(R)-1-(3,4-dichloro-phenyl)-ethyl]-amide], for which the figures for the half-inhibitory concentration (IC50) in assay [1] and in assay [2] were 2.33 nM and 130 nM, respectively.

Turning to `CNC[C@@H](CC(=O)N1CCc2cnc(NC(C)C)nc2C1)c1ccc(Cl)c(F)c1` [Compound I-17, (S)-3-(4-Chloro-3-fluoro-phenyl)-1-(2-isopropylamino-5,8-dihydro-6H-pyrido[3,4-d]pyrimidin-7-yl)-4-methylamino-butan-1-one], the IC50 in assay [1] was 3.2 nM; in assay [2] it was 281 nM.
